{
  "source": "patent US20210338782A1",
  "about": "“STORAGE STABLE SOMATOSTATIN-DOPAMINE CHIMERIC COMPOUNDS AND SALT FORMS THEREOF” (Cydan II, Inc., priority 2019, published 2021)",
  "assay_type_in_all_cases": "physicochemical",
  "key": {"[1]": {"assay": "Thermogravimetric analysis (TGA) of TBR-760 salt forms", "conditions": "ramp 5.0° C. per minute from 25 to 400° C.; hydrochloride salt", "how_it_was_run": "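Each salt form heated from 25 to 400 °C at 5.0 °C per minute while sample weight was recorded, to assess thermal stability.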"}, "[2]": {"assay": "Thermostability of alternative salt forms of lanreotide and TBR-760 (UPLC)", "conditions": "for thermostability in words: increasing temperature and humidity (25° C./60% RH, 40° C./75% RH, 60° C.) up to 4 weeks", "protocol": "Each TBR-760 salt was further evaluated for thermolytic stability over time by setting up three different exposure conditions (25° C. at 60% relative humidity (RH); 40° C. at 75% RH; or 60° C. with open and closed container systems (open dish/closed dish). Approximately 50 mg of each salt form was weighed in a nitrogen-flushed glove box for use in the studies. All samples were stored at −20° C. in a good laboratory practice (GLP) freezer both before and after exposure to the indicated conditions.\nThe stability of each salt form was assessed by monitoring the post-exposure drug peak purity and by evaluating the post-exposure visual appearance of the salt. The samples were removed from the exposure conditions and allowed to equilibrate to ambient conditions for 15-20 mins. An appropriate amount of each sample was weighed for analysis and dissolved in diluent (deionized water containing 0.1% TFA) to obtain a stock concentration of 1 mg/mL. The stock solution was then diluted to 0.125 mg/mL in an HPLC vial using diluent and the samples were run on a Waters Acquity UPLC system using the parameters shown in Table 4.\nWe conducted thermostability studies of lanreotide acetate substantially as described in Example 6. These experiments confirmed that lanreotide acetate is […] when exposed to increasing temperature and humidity conditions over time (FIG. 45). […] (FIG. 45). This degree of thermal and humidity instability is disfavored for a pharmaceutical agent, particularly one intended for patient self-administration at home.\nTo determine whether a thermostable salt form of TBR-760 could be manufactured, a salt exchange was performed as described in Example 1 to generate bromide and chloride salts of TBR-760. Lanreotide bromide and lanreotide chloride salts were also generated and assessed for thermostability to evaluate the effect of the salt form on compound stability and to compare stability of lanreotide and TBR-760 of each salt.\nUPLC assays performed as described in Example 6 were further used to determine the number of degradants—and thus the number of impurities—in each sample. Results showing the purity assessment of each sample following thermostability studies are shown in FIGS. 48A-48B (lanreotide and TBR-760 acetate salts), 49A-49B (lanreotide and TBR-760 bromide salts), and 50A-50B (lanreotide and TBR-760 chloride salts)."}, "[3]": {"assay": "Photostability of alternative salt forms of lanreotide and TBR-760", "conditions": "1.2 million lux hours visible light or 200 watt hours/square meter UV light, hydrochloride salt", "text": "In order to evaluate the light sensitivity and stability of TBR-760 chimeric peptide salts, all five salt forms were exposed to ultraviolet (UV) and visible light according to International Council for Harmonisation of Technical Requirements for Pharmaceuticals for Human Use (ICH) guideline Q1B for photostability testing. In brief, a Caron 6540-1 photostability chamber unit with separate UV and light chambers was used for the studies. Visible light exposure was 1.2 million lux hours and UV exposure was 200 watt hours/square meter.\nPhotostability of lanreotide acetate, lanreotide bromide, lanreotide chloride, TBR-760 acetate, TBR-760 bromide and TBR760 chloride was tested according to the methods of Example 7. Four samples were prepared for each salt form: one control for each of the UV and visible light exposure conditions (controls isolated from light) and one sample for exposure to each of the UV and visible light conditions. For each sample, 2-5 mg of the salt was weighed into 3 mL clear serum vials and stoppered. Vials containing control samples were wrapped in aluminum foil.\nFollowing exposure to visible and UV light, all lanreotide and TBR-760 salts were analyzed by UPLC as described in Example 7."}, "[4]": {"assay": "Solid state (thermolytic) stability of TBR-760 salt forms, open container, UPLC peak purity and appearance", "how_it_was_run": "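About 50 mg of each salt form exposed in open containers at 25° C/60% RH, 40° C/75% RH or 60° C, then stored at −20° C. After 15–20 min equilibration, appearance was noted; samples were dissolved in 0.1% TFA water and diluted to 0.125 mg/mL for UPLC peak purity.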"}, "[5]": {"assay": "Photostability of TBR-760 salt forms (ICH Q1B, visible and UV light), appearance and UPLC purity", "conditions": "for degradation upon exposure to visible or UV light, in words: visible and UV light", "how_it_was_run": "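Salt forms in clear sealed vials were exposed per ICH Q1B to 1.2 million lux hours visible and 200 watt hours/square meter UV, alongside foil-wrapped amber dark controls; reference controls were held at −20° C. Samples were inspected visually for appearance, then analysed by UPLC for purity.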"}, "[6]": {"assay": "Time and temperature stability of lyophilized TBR-760 salts in sealed glass vials (visual appearance, HPLC)", "conditions": "for salt form degraded: sealed glass vials, HPLC, hydrochloride salt", "protocol": "Lyophilized TBR-760 salts prepared as described above were assessed for stability by visual appearance and HPLC following initial production of the salt and following incubation of the salt at 20° C., 40° C., and 60° C. for 2, 4, and 8 weeks in sealed, glass vials. Changes in visual appearance of the salt were noted by evaluating the color of the substance following each incubation condition. Purity of the salt following each incubation condition was evaluated by HPLC. The number and quantity of degradation products were determined according to the number of absorbance peaks that resulted at different retention times and the size of the peaks."}, "[7]": {"conditions": "all thermostability conditions, UPLC"}, "[8]": {"conditions": "25° C. at 60% RH, open container"}, "[9]": {"conditions": "40° C. at 75% RH, open container"}, "[10]": {"conditions": "60° C., open dish, hydrochloride salt"}, "[11]": {"conditions": "UPLC peak purity, 25° C. at 60% RH, open container, hydrochloride salt"}, "[12]": {"conditions": "UPLC peak purity, 40° C. at 75% RH, open container, hydrochloride salt"}, "[13]": {"conditions": "UPLC peak purity, 60° C., open dish, hydrochloride salt"}},
  "note": "Where a name gives a salt, the structure may show the parent alone.",
  "data": [
    {"smiles": "CCCN1C[C@H](CSCC(=O)NCCCC[C@@H](NC(=O)CSC[C@@H]2C[C@@H]3c4cccc5[nH]cc(c45)C[C@H]3N(CCC)C2)C(=O)N[C@H]2CSSC[C@@H](C(=O)N[C@H](C(N)=O)[C@@H](C)O)NC(=O)[C@H](CC)NC(=O)[C@H](CCCCN)NC(=O)[C@@H](Cc3c[nH]c4ccccc34)NC(=O)[C@H](Cc3ccc(O)cc3)NC2=O)C[C@@H]2c3cccc4[nH]cc(c34)C[C@H]21", "note": "[TBR-760 chloride, Dop2-D-Lys(Dop2)-cyclo[Cys-Tyr-D-Trp-Lys-Abu-Cys]-Thr-NH2 hydrochloride salt]", "values": [
      {"measurement": "TGA start of decomposition", "setting": "[1]", "value": "~245", "unit": "°C"},
      {"measurement": "compound degraded", "setting": "[2]; 4 weeks at 60° C. and ambient humidity, hydrochloride salt", "value": "less than 0.6%"},
      {"measurement": "number of impurities compared with other TBR-760 salts", "setting": "[2]; [7]", "value": "fewer impurities"},
      {"measurement": "percent purity compared with other TBR-760 salts", "setting": "[2]; [7]", "value": "higher percent purity"},
      {"measurement": "thermostability in words", "setting": "[2]; listed as TBR-760 hydrochloride, hydrochloride salt", "value": "thermostable"},
      {"measurement": "thermostability in words", "setting": "[2]; listed as chloride salt form of TBR-760, hydrochloride salt", "value": "stable"},
      {"measurement": "visible appearance after exposure to visible and UV light", "setting": "[3]; versus control", "value": "did not visibly change"},
      {"measurement": "photostability in words (UPLC purity)", "setting": "[3]", "value": "as photostable as TBR-760 acetate"},
      {"measurement": "Appearance, T = 2 wk", "setting": "[4]; [8]", "value": "White"},
      {"measurement": "Appearance, T = 4 wk", "setting": "[4]; [8]", "value": "White"},
      {"measurement": "Appearance, T = 3 d", "setting": "[4]; [8]", "value": "White"},
      {"measurement": "stability compared with the other salt forms", "setting": "[4]; 40° C. at 75% RH and 60° C., 2 and 4 weeks, hydrochloride salt", "value": "significantly more stable"},
      {"measurement": "Appearance, T = 2 wk", "setting": "[4]; [9]", "value": "White"},
      {"measurement": "Appearance, T = 4 wk", "setting": "[4]; 40° C. at 75% RH, open container, hydrochloride salt", "value": "White"},
      {"measurement": "Appearance, T = 3 d", "setting": "[4]; [9]", "value": "White"},
      {"measurement": "Appearance, T = 2 wk", "setting": "[4]; [10]", "value": "White"},
      {"measurement": "Appearance, T = 4 wk", "setting": "[4]; [10]", "value": "White"},
      {"measurement": "Appearance, T = 3 d", "setting": "[4]; 60° C., open dish", "value": "White"},
      {"measurement": "Purity, T = 2 wk", "setting": "[4]; [11]", "value": 98.28},
      {"measurement": "Purity, T = 4 wk", "setting": "[4]; [11]", "value": 98.04},
      {"measurement": "Purity, T = 3 d", "setting": "[4]; [11]", "value": 98.44},
      {"measurement": "Purity, T = 2 wk", "setting": "[4]; [12]", "value": 97.62},
      {"measurement": "Purity, T = 4 wk", "setting": "[4]; [12]", "value": 97.78},
      {"measurement": "Purity, T = 3 d", "setting": "[4]; [12]", "value": 98.36},
      {"measurement": "Purity, T = 2 wk", "setting": "[4]; [13]", "value": 97.58},
      {"measurement": "Purity, T = 4 wk", "setting": "[4]; [13]", "value": 97.17},
      {"measurement": "Purity, T = 3 d", "setting": "[4]; [13]", "value": 98.45},
      {"measurement": "Purity, Control", "setting": "[4]; UPLC peak purity, control, stored at -20° C., hydrochloride salt", "value": 98.31},
      {"measurement": "Appearance, Control", "setting": "[4]; control, stored at -20° C.", "value": "White"},
      {"measurement": "additional degradants in chromatogram versus control", "setting": "[4]; two weeks at 60° C., open dish, UPLC, hydrochloride salt", "value": "two"},
      {"measurement": "Purity, UV-exposed", "setting": "[5]; UPLC, UV 200 watt hours/square meter, clear sealed vial, hydrochloride salt", "value": 97.06},
      {"measurement": "Purity, Control", "setting": "[5]; UPLC, control in sealed amber vial at -20° C., hydrochloride salt", "value": 98.31},
      {"measurement": "Purity, Dark Ctrl-UV", "setting": "[5]; UPLC, dark control in UV chamber, hydrochloride salt", "value": 98.37},
      {"measurement": "Purity, Dark Crtl-Light", "setting": "[5]; UPLC, dark control in visible light chamber, hydrochloride salt", "value": 98.33},
      {"measurement": "Purity, Light-exposed", "setting": "[5]; UPLC, visible light 1.2 million lux hours, clear sealed vial, hydrochloride salt", "value": 96.41},
      {"measurement": "stability following UV exposure, in words", "setting": "[5]; UV 200 watt hours/square meter", "value": "more stable following UV exposure than the acetate, mesylate, sulfate, or tosylate salts"},
      {"measurement": "Appearance, UV-exposed", "setting": "[5]; UV 200 watt hours/square meter, clear sealed vial, listed as Chloride, hydrochloride salt", "value": "white"},
      {"measurement": "Appearance, UV-exposed", "setting": "[5]; UV 200 watt hours/square meter, clear sealed vial, listed as chloride salt, hydrochloride salt", "value": "remained unchanged"},
      {"measurement": "Appearance, Control", "setting": "[5]; control in sealed amber vial at -20° C.", "value": "white"},
      {"measurement": "Appearance, Dark Ctrl-UV", "setting": "[5]; dark control in UV chamber, amber vial wrapped in aluminum foil", "value": "white"},
      {"measurement": "Appearance, Dark Crtl-Light", "setting": "[5]; dark control in visible light chamber, amber vial wrapped in aluminum foil", "value": "white"},
      {"measurement": "degradation upon exposure to visible or UV light, in words", "setting": "[5]; UPLC, hydrochloride salt", "value": "more resistant to degradation than TBR-760 acetate"},
      {"measurement": "degradation upon exposure to visible or UV light, in words", "setting": "[5]; UPLC, listed as TBR-760 chloride salt, hydrochloride salt", "value": "more stable"},
      {"measurement": "stability following light exposure, in words", "setting": "[5]; visible light 1.2 million lux hours", "value": "significantly more stable than the TBR-760 acetate salt"},
      {"measurement": "Appearance, Light-exposed", "setting": "[5]; visible light 1.2 million lux hours, clear sealed vial, listed as Chloride, hydrochloride salt", "value": "white"},
      {"measurement": "Appearance, Light-exposed", "setting": "[5]; visible light 1.2 million lux hours, clear sealed vial, listed as chloride, hydrochloride salt", "value": "no visible discoloration"},
      {"measurement": "change in visual appearance", "setting": "[6]; 8 weeks at 60° C.", "value": "no change in the visual appearance"},
      {"measurement": "salt form degraded", "setting": "[6]; 60° C. for 4 weeks", "value": 0.5, "unit": "%"},
      {"measurement": "salt form degraded", "setting": "[6]; 60° C. for 8 weeks", "value": "less than 1%"}
    ]}
  ]
}
